Data: article PMC12396409, “Screening and hit evaluation of a microbial metabolite library against the pathogenic Plasmodium falciparum and Toxoplasma gondii parasites” (International Journal for Parasitology: Drugs and Drug …, 2025)
Read-outs that look alike come from different tables or passages of the source.

Columns and labels:
[1] = tested on: P. falciparum 3D7 parasites; assay: P. falciparum growth inhibition assay, 2-cycle (120 h treatment), delayed-death screen and dose-response; assay type: cell-based, Plasmodium falciparum; conditions: for activity at 2 µg/mL: Plasmodium falciparum
[2] = tested on: T. gondii RH strain (RH-Tub-eYFP) tachyzoites; assay: microbe, parasite or virus in culture; assay type: cell-based, Toxoplasma gondii
[3] = tested on: P. falciparum 3D7 parasites; assay: P. falciparum growth inhibition assay, 1-cycle (72 h treatment), SYBR DNA staining (library screen at 2 μg/mL and dose-response); assay type: cell-based, Plasmodium falciparum; conditions: for activity at 2 µg/mL: Plasmodium falciparum
[4] = 3D7, library screen at 2 μg/mL, 120 h, % growth, replicate 1, read-out: Pf_120h_%Growth_Rep1
[5] = 3D7, library screen at 2 μg/mL, 120 h, % growth, replicate 2, read-out: Pf_120h_%Growth_Rep2
[6] = 3D7, library screen at 2 μg/mL, 72 h, % growth, replicate 1, read-out: Pf_72h_%Growth_Rep1
[7] = 3D7, library screen at 2 μg/mL, 72 h, % growth, replicate 2, read-out: Pf_72h_%Growth_Rep2
[8] = library screen at 2 μg/mL, 72 h, % growth, replicate 1
[9] = library screen at 2 μg/mL, 72 h, % growth, replicate 2
[10] = P. falciparum, 120 h, screen at 2 μg/mL, replicate 1
[11] = P. falciparum, 120 h, screen at 2 μg/mL, replicate 2
[12] = T. gondii, 72 h, screen at 2 μg/mL, replicate 1
[13] = T. gondii, 72 h, screen at 2 μg/mL, replicate 2
[14] = P. falciparum, 72 h, screen at 2 μg/mL, replicate 1
[15] = P. falciparum, 72 h, screen at 2 μg/mL, replicate 2

`CCCC(=O)OC1C(C)OC(OC2C(C)OC(OC3C(CC=O)CC(C)C(O)C=CC=CCC(C)OC(=O)CC(O)C3OC)C(O)C2N(C)C)CC1(C)O` (stereo not drawn) [BIA-L1357] showed a Pf_120h_%Growth_Rep1 ([1]; P. falciparum 3D7, 120 h, library screen at 2 μg/mL, % growth, replicate 1) of 3.21%, a Pf_120h_%Growth_Rep2 ([1]; P. falciparum 3D7, 120 h, library screen at 2 μg/mL, % growth, replicate 2) of 21.14% and a Tg_72h_%Growth_Rep1 ([2]; T. gondii RH, 72 h, library screen at 2 μg/mL, % growth, replicate 1) of 30.88%. It also gave a Tg_72h_%Growth_Rep2 ([2]; T. gondii RH, 72 h, library screen at 2 μg/mL, % growth, replicate 2) of 21.24%, a Pf_72h_%Growth_Rep1 ([3]; P. falciparum 3D7, 72 h, library screen at 2 μg/mL, % growth, replicate 1) of 53.81% and a Pf_72h_%Growth_Rep2 ([3]; P. falciparum 3D7, 72 h, library screen at 2 μg/mL, % growth, replicate 2) of 78.28%.

Work on `CC[C@H](C)[C@H]1C(=O)O[C@H](C(C)C)C(=O)N(C)[C@@H](C(C)C)C(=O)O[C@H](C(C)C)C(=O)N(C)[C@@H](C(C)C)C(=O)O[C@H](C(C)C)C(=O)N1C` [Enniatin B1] yielded an activity at 2 µg/mL [1, 4] of 5.98%, an activity at 2 µg/mL [1, 5] of 9.66% and a percent parasite growth at 2 µg/mL ([2]; Toxoplasma gondii; library screen at 2 μg/mL, 72 h, % growth, replicate 1; read-out: Tg_72h_%Growth_Rep1) of 0.26%. The percent parasite growth at 2 µg/mL ([2]; Toxoplasma gondii; library screen at 2 μg/mL, 72 h, % growth, replicate 2; read-out: Tg_72h_%Growth_Rep2) was 25.7%, the activity at 2 µg/mL [3, 6] was 4.56% and the activity at 2 µg/mL [3, 7] was 3.05%.

Work on `CC(C)c1ncc(Cc2ccccc2)[nH]c1=O` [Aureusimine B] yielded a Pf_120h_%Growth_Rep1 ([1]; library screen at 2 μg/mL, 120 h, % growth, replicate 1) of 140.97%, a Pf_120h_%Growth_Rep2 ([1]; library screen at 2 μg/mL, 120 h, % growth, replicate 2) of 94.84% and a Tg_72h_%Growth_Rep1 [2, 8] of 82.28%. The Tg_72h_%Growth_Rep2 [2, 9] was 99.21%, the Pf_72h_%Growth_Rep1 [3, 8] was 102.22% and the Pf_72h_%Growth_Rep2 [3, 9] was 85.03%.

For `CN1C(=O)c2ccccc2NC(=O)[C@]12O[C@@H]2c1ccccc1` [Cyclopenin], the Pf_120h_%Growth_Rep1 [1, 10] was 83.48%, the Pf_120h_%Growth_Rep2 [1, 11] was 80.30% and the Tg_72h_%Growth_Rep1 [2, 12] was 136.91%. The Tg_72h_%Growth_Rep2 [2, 13] was 103.54%, the Pf_72h_%Growth_Rep1 [3, 14] was 83.83% and the Pf_72h_%Growth_Rep2 [3, 15] was 77.00%.

For `COC(=O)[C@]1(Cc2ccc(O)c(CC=C(C)C)c2)OC(=O)C(O)=C1c1ccc(O)cc1` [Butyrolactone I], the activity at 2 µg/mL ([1]; 3D7, 120 h, P. falciparum, 120 h, screen at 2 μg/mL, replicate 1, read-out: Pf_120h_%Growth_Rep1) was 147%, the activity at 2 µg/mL ([1]; 3D7, 120 h, P. falciparum, 120 h, screen at 2 μg/mL, replicate 2, read-out: Pf_120h_%Growth_Rep2) was 92.6% and the percent parasite growth at 2 µg/mL ([2]; Toxoplasma gondii, 72 h, T. gondii, 72 h, screen at 2 μg/mL, replicate 1; read-out: Tg_72h_%Growth_Rep1) was 85.8%. The percent parasite growth at 2 µg/mL ([2]; Toxoplasma gondii, 72 h, T. gondii, 72 h, screen at 2 μg/mL, replicate 2; read-out: Tg_72h_%Growth_Rep2) was 88.7%, the activity at 2 µg/mL ([3]; 3D7, 72 h, P. falciparum, 72 h, screen at 2 μg/mL, replicate 1, read-out: Pf_72h_%Growth_Rep1) was 72.4% and the activity at 2 µg/mL ([3]; 3D7, 72 h, P. falciparum, 72 h, screen at 2 μg/mL, replicate 2, read-out: Pf_72h_%Growth_Rep2) was 88.5%.

Molecule `C[C@@H](O)[C@H]1C(=O)N2C(C(=O)[O-])=C(SC3Cn4cnc[n+]4C3)[C@H](C)[C@H]12` (stereo partly drawn) [Biapenem] has an activity at 2 µg/mL [1, 4] of 85.6%, an activity at 2 µg/mL [1, 5] of 79.2% and a percent parasite growth at 2 µg/mL ([2]; Toxoplasma gondii, 72 h, library screen at 2 μg/mL, 72 h, % growth, replicate 1; read-out: Tg_72h_%Growth_Rep1) of 116%. The percent parasite growth at 2 µg/mL ([2]; Toxoplasma gondii, 72 h, library screen at 2 μg/mL, 72 h, % growth, replicate 2; read-out: Tg_72h_%Growth_Rep2) was 95.1%, the activity at 2 µg/mL [3, 6] was 84.2% and the activity at 2 µg/mL [3, 7] was 84.8%.

For `C=C1[C@@H](C)[C@H]2[C@H](Cc3ccccc3)NC(=O)[C@]23OC(=O)/C=C/C(=O)CCC[C@@H](C)C/C=C/[C@H]3[C@@H]1O` [Cytochalasin A], the Pf_120h_%Growth_Rep1 [1, 10] was 0.48%, the Pf_120h_%Growth_Rep2 [1, 11] was 6.78% and the Tg_72h_%Growth_Rep1 [2, 12] was 2.84%. For the same molecule, the Tg_72h_%Growth_Rep2 [2, 13] was 2.30%, the Pf_72h_%Growth_Rep1 [3, 14] was 14.20% and the Pf_72h_%Growth_Rep2 [3, 15] was 12.98%.

Work on `CC1(C)[C@H](C(=O)O)N2C(=O)C[C@H]2S1(=O)=O` [Sulbactam sodium] yielded an activity at 2 µg/mL ([1]; 3D7, P. falciparum, 120 h, parasite screen 2 μg/mL, % growth, replicate 1, read-out: Pf_120h_%Growth_Rep1) of 105%, an activity at 2 µg/mL ([1]; 3D7, P. falciparum, 120 h, parasite screen 2 μg/mL, % growth, replicate 2, read-out: Pf_120h_%Growth_Rep2) of 104% and a percent parasite growth at 2 µg/mL ([2]; Toxoplasma gondii, 72 h, T. gondii, 72 h, parasite screen 2 μg/mL, % growth, replicate 1; read-out: Tg_72h_%Growth_Rep1) of 134%. It also gave a percent parasite growth at 2 µg/mL ([2]; Toxoplasma gondii, 72 h, T. gondii, 72 h, parasite screen 2 μg/mL, % growth, replicate 2; read-out: Tg_72h_%Growth_Rep2) of 84.2%, an activity at 2 µg/mL ([3]; 3D7, P. falciparum, 72 h, parasite screen 2 μg/mL, % growth, replicate 1, read-out: Pf_72h_%Growth_Rep1) of 90.2% and an activity at 2 µg/mL ([3]; 3D7, P. falciparum, 72 h, parasite screen 2 μg/mL, % growth, replicate 2, read-out: Pf_72h_%Growth_Rep2) of 124%.
